In patent publication US6034058A, “Semi-synthetic alanyl dilemnin analogs” (priority 1998, dated 2000):
Numbered stars: 1 amine (or outer) side, 2 acyl side, 3 side chain; on linkers, the order of the positions; unused ones are H or OH. Bridge positions count the residues as written; N and C are the ends. Square brackets hold non-standard residues; d marks the D form. Peptide text beside a SMILES is read from it. X1 = CC[C@H](C)[C@@H](N[*:1])[C@@H](O)CC(=O)O[C@H](C(=O)[C@H](C)C(=O)[*:2])C(C)C; NMeY = CN[C@@H](Cc1ccc(O)cc1)C(=O)O; dNMeL = CN[C@H](CC(C)C)C(=O)O

Key:
L1210 = format: cell-based; conditions: for L1210, IC90: L1210 cells, cytotoxicity
[1] = biological target: elongation factor-1α (EF-1α) (Homo sapiens, UniProt P68104); conditions: GEP-dependent manner; cited from earlier work
DNA and RNA viruses = conditions: against DNA and RNA viruses; cited from earlier work
Nb2 node lymphoma cells = conditions: cited from earlier work
[2] = in vitro; cited from earlier work

elongation factor-1α (EF-1α), sequence (P68104 whole entry): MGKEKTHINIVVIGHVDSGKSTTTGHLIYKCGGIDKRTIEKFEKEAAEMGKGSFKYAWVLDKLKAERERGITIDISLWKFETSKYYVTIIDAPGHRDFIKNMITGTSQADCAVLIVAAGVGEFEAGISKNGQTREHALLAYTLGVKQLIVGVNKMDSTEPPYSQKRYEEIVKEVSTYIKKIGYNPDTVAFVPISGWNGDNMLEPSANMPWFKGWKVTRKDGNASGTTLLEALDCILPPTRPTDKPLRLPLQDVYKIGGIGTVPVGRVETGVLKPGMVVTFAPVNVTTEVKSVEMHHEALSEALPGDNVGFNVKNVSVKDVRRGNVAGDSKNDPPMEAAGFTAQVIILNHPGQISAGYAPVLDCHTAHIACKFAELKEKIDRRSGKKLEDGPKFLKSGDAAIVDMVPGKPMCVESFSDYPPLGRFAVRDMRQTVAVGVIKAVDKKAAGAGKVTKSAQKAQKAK

## CC[C@H](C)[C@H]1NC(=O)[C@@H](NC(=O)[C@@H](CC(C)C)NC)[C@@H](C)OC(=O)[C@H](Cc2ccc(OC)cc2)N(C)C(=O)[C@@H]2CCCN2C(=O)[C@H](CC(C)C)NC(=O)[C@@H](C)C(=O)[C@H](C(C)C)OC(=O)C[C@@H]1O [Didemnin A] (H-[dNMeL]T[X1]LP[NMeY](Me); ester 2-C)
L1210
  L1210, IC90: 75 ng/mL
[1]
  binding to EF-1α: binds elongation factor-1α (EF-1α)
DNA and RNA viruses
  antiviral activity: exhibit antiviral activity

## CC[C@H](C)[C@H]1NC(=O)[C@@H](NC(=O)[C@@H](CC(C)C)N(C)C(=O)[C@@H]2CCCN2C(=O)C(C)O)[C@@H](C)OC(=O)[C@H](Cc2ccc(OC)cc2)N(C)C(=O)[C@@H]2CCCN2C(=O)[C@H](CC(C)C)NC(=O)[C@@H](C)C(=O)[C@H](C(C)C)OC(=O)C[C@@H]1O (stereo partly shown) [Didemnin B]
Nb2 node lymphoma cells
  binding to a site on Nb2 node lymphoma cells: binds to a site on Nb2 node lymphoma cells
[2]
  cytotoxicity relative to didemnin A: approximately twenty times more cytotoxic than didemnin A
L1210
  L1210, IC90: 7 ng/mL
DNA and RNA viruses
  antiviral activity: exhibit antiviral activity

## L-Alaninyl-didemnin A [Alaninyl DA]
L1210
  L1210, IC90: 8 ng/mL

## L-[Alaninyl^9 ] didemnin B [[Ala^9]DB]
L1210; preliminary assay results
  relative bioactivity among the didemnins synthesized: the most active of the didemnins synthesized thus far

## L-glutaminyl-L-[alaninyl^9 ]didemnin B [Gln-[Ala^9]DB]
L1210
  L1210, IC90: 200 ng/mL

## L-glutaminyl-L-alaninyl-didemnin A [Glutaminyl-AlaDA]
L1210
  L1210, IC90: 25 ng/mL

## L-pyroglutamyl-L-[alaninyl^9 ] didemnin B [pGlu-[Ala^9]DB]
L1210
  L1210, IC90: 500 ng/mL

## N-Benzyloxycarbonly-L-[Alaninyl^9 ]didemnin B [Cbz-[Ala^9]DB]
L1210
  L1210, IC90: 2 ng/mL

## N-Benzyloxycarbonyl-L-alaninyl-didemnin A [Cbz-Alaninyl DA]
L1210
  L1210, IC90: 3 ng/mL

## N-Benzyloxycarbonyl-L-glutaminyl-didemnin A [Cbz-Glutaminyl DA]
L1210
  L1210, IC90: 8 ng/mL

## Pro-Didemnin A [Prolyl DA]
L1210
  L1210, IC90: 12 ng/mL
